According to article PMC5080580, “Structural elucidation of estrus urinary lipocalin protein (EULP) and evaluating binding affinity with pheromones using molecular docking and fluorescence study” (Scientific Reports, 2016):

Target: T1, estrus urinary lipocalin protein (EULP)
T1 construct: gene PMP2; native, purified from female rat urine by Sephadex G-50 gel filtration; printed peptides MSNKFL, KFLGTWKLT, KLTSSENFD, NFDEYMKAL, LGTRSLGNL, LAGPTVIIS, ITIRTESGF, GFKNTEISF, FEETTADNR, RKTKSTVTL, KSTVTLAGG, NGNETTIKR, SVVCTRIYE
Assay: fluorescence binding of 2-naphthol probe
Parameters: species or system Rattus rattus
Conditions: 10 mM phosphate buffer pH 7.2, room temperature; fluorescent probe

Compound: Oc1ccc2ccccc2c1 [2-naphthol]
- Kd: 420 ± 60 nM
